Experimental data as given in US9056876B2, “Substituted 1H-pyrazolo[3′,4′,4,5]thieno[2,3-b]pyridin-3-amine analogs as positive allosteric modulators of the muscarinic acetylcholine receptor M4” (VANDERBILT UNIVERSITY, priority 2011, dated 2015).

Target: T1, mAChR M4 (UniProt P08173)
T1 construct: hM1 and hM4 cDNAs were purchased from Missouri S&T cDNA Resource
T1 sequence (P08173 1-479): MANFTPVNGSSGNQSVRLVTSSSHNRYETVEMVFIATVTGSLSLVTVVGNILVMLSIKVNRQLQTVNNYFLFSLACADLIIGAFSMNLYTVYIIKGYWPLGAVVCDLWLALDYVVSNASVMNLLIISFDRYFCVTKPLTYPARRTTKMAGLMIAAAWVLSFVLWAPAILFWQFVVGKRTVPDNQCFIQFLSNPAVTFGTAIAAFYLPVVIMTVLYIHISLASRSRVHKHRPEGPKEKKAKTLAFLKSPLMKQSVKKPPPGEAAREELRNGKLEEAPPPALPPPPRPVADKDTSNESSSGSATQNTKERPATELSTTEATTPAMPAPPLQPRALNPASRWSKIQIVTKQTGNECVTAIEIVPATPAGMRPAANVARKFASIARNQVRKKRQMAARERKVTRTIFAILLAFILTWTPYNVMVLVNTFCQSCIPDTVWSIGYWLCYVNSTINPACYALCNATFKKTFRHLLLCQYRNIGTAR
Assay: mAChR M4 cell-based functional assay (calcium mobilization, Fluo-4, FDSS)
Conditions: for pEC50: positive allosteric modulator activity, EC20 acetylcholine response; for pEC50 / EC50: CHO-K1 cells; for EC50: positive allosteric modulator activity: concentration-dependent increase in the EC20 acetylcholine response, >10 μM estimated for low potency (no plateau); for Emax (%)*: % ACh maximum at 30 μM
Excerpt: Chinese hamster ovary (CHO-K1) cells stably expressing rat (r)M1 were purchased from the American Type Culture Collection and cultured according to their indicated protocol. CHO cells stably expressing human (h)M2, hM3, and hM5 were described previously (Levey A I, et al., (1991) J Neurosci 11:3218-3226.); hM1 and hM4 cDNAs were purchased from Missouri S&T cDNA Resource; rM4 cDNA was provided by T. I. Bonner (National Institutes of Health, Bethesda, Md.). rM2 and rM3 were cloned from a rat brain cDNA library and sequence verified. hM1, rM2, rM3, hM4, and rM4 cDNAs were used to stably transfect CHO-K1 cells purchased from the American Type Culture Collection using Lipofectamine-2000. To make stable rM2, hM2, rM3, hM4, and rM4 cell lines for use in calcium mobilization assays, these cells also were stably transfected with a chimeric G-protein (Gqi5) (provided by B. R. Conklin, University of California, San Francisco) using Lipofectamine 2000. rM1, hM1, rM3, hM3, rM5, and hM5 cells were grown in Ham's F-12 medium containing 10% heat-inactivated fetal bovine serum (FBS), 20 mM HEPES, and 50 µg/mL G418 sulfate. rM2-Gqi5, hM2-Gqi5, and hM4-Gqi5 cells were grown in the same medium also containing 500 µg/mL Hygromycin B. Stable rM4-Gqi5 cells were grown in DMEM containing 10% heat-inactivated FBS, 20 mM HEPES, 400 µg/mL G418 sulfate, and 500 µg/mL Hygromycin B.
For high throughput measurement of agonist-evoked increases in intracellular calcium, CHO-K1 cells stably expressing the target muscarinic receptor were plated in growth medium lacking G418 and hygromycin at 15,000 cells/20 μL/well in Greiner 384-well black-walled, tissue culture (TC)-treated, clear-bottom plates (VWR). Cells were incubated overnight at 37° C. and 5% CO2. The next day, cells were washed using an ELX 405 (BioTek) with four washes (80 μL) of assay buffer then aspirated to 20 μL. Next, […] of 16 μM Fluo-4/acetoxymethyl ester (Invitrogen, Carlsbad, Calif.) prepared as a 2.3 mM stock in DMSO and mixed in a 1:1 ratio with 10% (w/v) Pluronic F-127 and diluted in assay buffer was added to the wells and the cell plates were incubated for 50 min at 37° C. and 5% CO2. Dye was removed by washing with the ELX 405 (four 80 μL washes of assay buffer) then aspirated to 20 μL. Compound master plates were formatted in an 11 point CRC format (1:3 dilutions) in 100% DMSO with a starting concentration of 10 mM using the BRAVO liquid handler (Agilent). Test compound CRCs were then transferred to daughter plates (240 nL) using the Echo acoustic plate reformatter (Labcyte, Sunnyvale, Calif.) and then diluted into assay buffer (40 μL) to a 2× stock using a Thermo Fisher Combi (Thermo Fisher Scientific, Waltham, Mass.).
Calcium flux was measured using the Functional Drug Screening System (FDSS) 6000 (Hamamatsu Corporation, Tokyo, Japan) as an increase in the fluorescent static ratio. Compounds were applied to cells (20 μL, 2×) using the automated system of the FDSS 6000 at 4 s into the 300 s protocol and the data were collected at 1 Hz. At 144 s into the 300 s protocol, 10 μL of an EC20 concentration of the muscarinic receptor agonist acetylcholine was added (5×), followed by the addition of 12 μL an EC80 concentration of acetylcholine at the 230 s time point (5×). Agonist activity was analyzed as a concentration-dependent increase in calcium mobilization upon compound addition. Positive allosteric modulator activity was analyzed as a concentration-dependent increase in the EC20 acetylcholine response. Antagonist activity was analyzed as a concentration-dependent decrease in the EC80 acetylcholine response. Concentration-response curves were generated using a four-parameter logistical equation in XLfit curve fitting software (IDBS, Bridgewater, N.J.) for Excel (Microsoft, Redmond, Wash.) or Prism (GraphPad Software, Inc., San Diego, Calif.). […]

pEC50 | EC50 | Emax (%)* | Structure (SMILES)
<5.00 | > 10000 nM | – | Cc1nc2sc3c(NCC4CCCCC4)n[nH]c3c2c(C)c1Cl [Compound 142, 7-chloro-N-(cyclohexylmethyl)-6,8-dimethyl-1H-pyrazolo[3′,4′:4,5]thieno[2,3-b]pyridin-3-amine]
6.07 | 850 nM | 50% | Cc1nc2sc3c(N)nn(C)c3c2c(C)c1Cl [Compound 23, 7-chloro-1,6,8-trimethyl-1H-pyrazolo[3′,4′:4,5]thieno[2,3-b]pyridin-3-amine]
<5.00 | > 10000 nM | – | Cc1nc2sc3c(N)n[nH]c3c2c(C)c1Cl [Compound 141, 7-chloro-6,8-dimethyl-1H-pyrazolo[3′,4′:4,5]thieno[2,3-b]pyridin-3-amine]
<5.00 | > 10000 nM | – | Cc1ccc2c(n1)sc1c(NC(=O)c3ccccc3)nn(C)c12 [Compound 157, N-(1,6-dimethyl-1H-pyrazolo[3′,4′:4,5]thieno[2,3-b]pyridin-3-yl)benzamide]
<5.00 | > 10000 nM | – | Cc1cc(C)c2c(n1)sc1c(NC3CCC(N)CC3)n[nH]c12 (stereo not shown) [Compound 138, N1-(6,8-dimethyl-1H-pyrazolo[3′,4′:4,5]thieno[2,3-b]pyridin-3-yl)cyclohexane-1,4-diamine]
5.48 | 3300 nM | 37% | Cc1cc(C)c2c(n1)sc1c(NCC3CCCN3C(=O)OC(C)(C)C)nn(C)c12 (stereo not shown) [Compound 85, tert-butyl 2-(((1,6,8-trimethyl-1H-pyrazolo[3′,4′:4,5]thieno[2,3-b]pyridin-3-yl)amino)methyl)pyrrolidine-1-carboxylate]
5.62 | 2410 nM | 59% | Cc1cc(C)c2c(n1)sc1c(NC(C)C)n[nH]c12 [Compound 11, N-isopropyl-6,8-dimethyl-1H-pyrazolo[3′,4′:4,5]thieno[2,3-b]pyridin-3-amine]
<5.00 | > 10000 nM | – | Cc1cc(C)c2c(n1)sc1c(NC3CCCCC3)n[nH]c12 [Compound 132, N-cyclohexyl-6,8-dimethyl-1H-pyrazolo[3′,4′:4,5]thieno[2,3-b]pyridin-3-amine]
6.24 | 580 nM | 75% | Cc1ccnc2sc3c(NCc4ccccc4)nn(C)c3c12 [Compound 68, N-benzyl-1,8-dimethyl-1H-pyrazolo[3′,4′:4,5]thieno[2,3-b]pyridin-3-amine]
<5.00 | > 10000 nM | – | Cc1cc(C)c2c(n1)sc1c(NC3CCC(C(F)(F)F)CC3)n[nH]c12 (stereo not shown) [Compound 137, 6,8-dimethyl-N-(4-(trifluoromethyl)cyclohexyl)-1H-pyrazolo[3′,4′:4,5]thieno[2,3-b]pyridin-3-amine]
<5.00 | > 10000 nM | – | Cc1nc2sc3c(NCc4ccc(F)cc4)n[nH]c3c2c(C)c1Cl [Compound 145, 7-chloro-N-(4-fluorobenzyl)-6,8-dimethyl-1H-pyrazolo[3′,4′:4,5]thieno[2,3-b]pyridin-3-amine]
6.00 | 1000 nM | 66% | Cc1ccnc2sc3c(NCc4ccco4)nn(C)c3c12 [Compound 71, N-(furan-2-ylmethyl)-1,8-dimethyl-1H-pyrazolo[3′,4′:4,5]thieno[2,3-b]pyridin-3-amine]
5.82 | 1500 nM | 64% | Cc1ccc2c(n1)sc1c(NCc3ccco3)nn(C)c12 [Compound 52, N-(furan-2-ylmethyl)-1,6-dimethyl-1H-pyrazolo[3′,4′:4,5]thieno[2,3-b]pyridin-3-amine]
5.43 | 3700 nM | 59% | Cc1cc(C)c2c(n1)sc1c(NCc3cc(C)on3)nn(C)c12 [Compound 97, 1,6,8-trimethyl-N-((5-methylisoxazol-3-yl)methyl)-1H-pyrazolo[3′,4′:4,5]thieno[2,3-b]pyridin-3-amine]
6.19 | 640 nM | 74% | Cc1ccnc2sc3c(NCc4ccncc4)nn(C)c3c12 [Compound 62, 1,8-dimethyl-N-(pyridin-4-ylmethyl)-1H-pyrazolo[3′,4′:4,5]thieno[2,3-b]pyridin-3-amine]
6.66 | 220 nM | 68% | Cc1cc(C)c2c(n1)sc1c(NCc3cccnc3)nn(C)c12 [Compound 76, 1,6,8-trimethyl-N-(pyridin-3-ylmethyl)-1H-pyrazolo[3′,4′:4,5]thieno[2,3-b]pyridin-3-amine]
6.66 | 220 nM | 72% | COc1ccc(CNc2nn(C)c3c2sc2nc(C)cc(C)c23)cc1 [Compound 38, N-(4-methoxybenzyl)-1,6,8-trimethyl-1H-pyrazolo[3′,4′:4,5]thieno[2,3-b]pyridin-3-amine]
5.54 | 2900 nM | 43% | CCC(=O)Nc1nn(C)c2c1sc1nc(C)cc(C)c12 [Compound 47, N-(1,6,8-trimethyl-1H-pyrazolo[3′,4′:4,5]thieno[2,3-b]pyridin-3-yl)propionamide]
<5.00 | > 10000 nM | – | Cc1cc(C)c2c(n1)sc1c(NCc3nccn3C)nn(C)c12 [Compound 163, 1,6,8-trimethyl-N-((1-methyl-1H-imidazol-2-yl)methyl)-1H-pyrazolo[3′,4′:4,5]thieno[2,3-b]pyridin-3-amine]
5.92 | 1200 nM | 73% | Cc1cc(C)c2c(n1)sc1c(NC3CCCCC3)nn(C)c12 [Compound 66, N-cyclohexyl-1,6,8-trimethyl-1H-pyrazolo[3′,4′:4,5]thieno[2,3-b]pyridin-3-amine]
5.76 | 1740 nM | 55% | Cc1cc(C)c2c(n1)sc1c(NC3CCCC3)n[nH]c12 [Compound 10, N-cyclopentyl-6,8-dimethyl-1H-pyrazolo[3′,4′:4,5]thieno[2,3-b]pyridin-3-amine]
<5.00 | > 10000 nM | 39% | Cc1nc2sc3c(NCc4cccs4)n[nH]c3c2c(C)c1Cl [Compound 21, 7-chloro-6,8-dimethyl-N-(thiophen-2-ylmethyl)-1H-pyrazolo[3′,4′:4,5]thieno[2,3-b]pyridin-3-amine]
<5.00 | > 10000 nM | 63% | Cc1cc(C)c2c(n1)sc1c(NCc3ccc(F)c(F)c3)nn(C)c12 [Compound 60, N-(3,4-difluorobenzyl)-1,6,8-trimethyl-1H-pyrazolo[3′,4′:4,5]thieno[2,3-b]pyridin-3-amine]
